According to patent US6492416B1, “4,5-diaryl-3(2H)-furanone derivatives as cyclooxygenase-2 inhibitors” (Pacific Corporation, priority 1999, dated 2002):

Question: With Cc1ccc(C2=C(c3ccc(S(C)(=O)=O)cc3)OC(C)(C)C2=O)cc1 [Example 1, 2,2-Dimethyl-4-(4methylphenyl)-5-{4-(methylsulfonyl)phenyl}-3(2H)-furanone] as the molecule, how does the melting point read?
Answer: 167 to 168 °C

Question: Which melting point does the source give for CC1(C)OC(c2ccc(S(C)(=O)=O)cc2)=C(c2ccc(F)c(Cl)c2)C1=O [Example 2, 4-(3-Chloro-4-fluorophenyl)-2,2-dimethyl-5-{4-(methylsulfonyl)phenyl}-3(2H)-furanone] here?
Answer: 162 to 164 °C

Question: Which melting point does the source give for CC1(C)OC(c2ccc(S(C)(=O)=O)cc2)=C(c2ccc(OC(F)(F)F)cc2)C1=O [Example 7, 2,2-Dimethyl-5-{4-(methylsulfonyl)phenyl}-4-{4-(trifluoromethoxy)phenyl}-3(2H)-furanone] here?
Answer: 118 to 120 °C

Question: For CC1(C)OC(c2ccc(S(C)(=O)=O)cc2)=C(c2ccc3c(c2)OCO3)C1=O [Example 8, 2,2-Dimethyl-4-(3,4-methylenedioxyphenyl)-5-{4-(methylsulfonyl)phenyl}-3(2H)-furanone], which melting point is on record?
Answer: 178 to 179 °C

Question: Which melting point does the source give for COc1c(C)cc(C2=C(c3ccc(S(C)(=O)=O)cc3)OC(C)(C)C2=O)cc1C [Example 12, 2,2-Dimethyl-4-(3,5-dimethyl-4-methoxyphenyl)-5-{4-(methylsulfonyl)phenyl}-3(2H)-furanone] here?
Answer: 130 to 131 °C

Question: With CC1(C)OC(c2ccc(S(C)(=O)=O)cc2)=C(c2cccc3ccccc23)C1=O [Example 13, 2,2-Dimethyl-5-{4-(methylsulfonyl)phenyl}-4-(1-naphthyl)-3(2H)-furanone] as the molecule, how does the melting point read?
Answer: 194 to 195 °C

Question: With CC1(C)OC(c2ccc(S(C)(=O)=O)cc2)=C(c2cc3ccccc3s2)C1=O [Example 15, 4-(2-Benzo[b]thienyl)-2,2-dimethyl-5-{4-(methylsulfonyl)phenyl}-3(2H)-furanone] as the molecule, how does the melting point read?
Answer: 204 to 206 °C

Question: For CC1(C)OC(c2ccc(S(C)(=O)=O)cc2)=C(c2cc3ccccc3o2)C1=O [Example 16, 4-(2-Benzo[b]furanyl)-2,2-dimethyl-5-{4-(methylsulfonyl)phenyl}-3(2H)-furanone], which melting point is on record?
Answer: 140 to 141 °C

Question: For CC1(C)OC(c2ccc(S(C)(=O)=O)cc2)=C(c2cccnc2)C1=O [Example 19, 2,2-Dimethyl-5-{4-(methylsulfonyl)phenyl}-4-(3-pyridyl)-3(2H)-furanone], which melting point is on record?
Answer: 164 to 166 °C

Question: With CC1(C)OC(c2ccc(S(N)(=O)=O)cc2)=C(c2ccc3c(c2)OCO3)C1=O [Example 27, 5-{4-(Aminosulfonyl)phenyl{-2,2-dimethyl-4-}3,4-(methylenedioxy)phenyl}-3(2H)-furanone] as the molecule, how does the melting point read?
Answer: 178 to 179 °C

Question: Which melting point does the source give for CC1(C)OC(c2ccc(S(N)(=O)=O)cc2)=C(c2cc3ccccc3s2)C1=O [Example 28] here?
Answer: 120 to 121 °C

Question: With CC1(C)OC(c2ccc(S(N)(=O)=O)cc2)=C(c2cccc(-c3ccccc3)c2)C1=O [Example 29, 5-{4-(Aminosulfonyl)phenyl}-4-(3-biphenyl)-2,2-dimethyl-3(2H)-furanone] as the molecule, how does the melting point read?
Answer: 160 to 161 °C

Question: With CC1(C)OC(c2ccc(S(N)(=O)=O)cc2)=C(c2cc3ccccc3o2)C1=O [Example 30] as the molecule, how does the melting point read?
Answer: 143 to 145 °C

Question: Which melting point does the source give for CCC1(C)OC(c2ccc(S(N)(=O)=O)cc2)=C(c2ccc(OC)c(F)c2)C1=O (stereo not drawn) [Example 46, 5-{4-(Aminosulfonyl)phenyl}-2-ethyl-4-(3-fluoro-4-methoxyphenyl)-2-methyl-3(2H)-furanone] here?
Answer: 113 to 114 °C

Question: For CCC1(CC)OC(c2ccc(S(C)(=O)=O)cc2)=C(c2ccccc2)C1=O [Example 47, 2,2-Diethyl-5-{4-(methylsulfonyl)phenyl}-4-phenyl-3(2H)-furanone], which melting point is on record?
Answer: 139 to 140 °C

Question: For CC(=O)c1ccc(C2=C(c3ccc(S(C)(=O)=O)cc3)OC3(CCCC3)C2=O)cc1 [Example 55, 3-(4-Acetylphenyl)-2-{4-(methylsulfonyl)phenyl}-1-oxa-spiro[4,4]non-2-en-4-one], which melting point is on record?
Answer: 126 to 130 °C

Question: For CSc1ccc(C2=C(c3ccc(S(C)(=O)=O)cc3)OC(C)(C)C2=O)cc1 [Example 72, 2,2-dimethyl-5-{4-(methylsulfonyl)phenyl}-4-{4-(methylthio)-phenyl}-3(2H)-furanone], which melting point is on record?
Answer: 137 to 141 °C

Question: With CCSc1ccc(C2=C(c3ccc(S(C)(=O)=O)cc3)OC(C)(C)C2=O)cc1 [Example 88, 2,2-dimethyl-4-{4-(ethylthio)phenyl}-5-{4-(methylsulfonyl)-phenyl}-3(2H)-furanone] as the molecule, how does the melting point read?
Answer: 103 to 105 °C

Question: With CC1(C)OC(c2ccc(S(C)(=O)=O)cc2)=C(c2ccc(S(C)(=O)=O)cc2)C1=O [Example 109, 2,2-Dimethyl-4,5-di{4-(methylsulfonyl)phenyl}-3(2H)-furanone] as the molecule, how does the melting point read?
Answer: 245 to 257 °C

Question: For CCS(=O)(=O)c1ccc(C2=C(c3ccc(S(C)(=O)=O)cc3)OC(C)(C)C2=O)cc1 [Example 110, 2,2-Dimethyl-4-{4-(ethylsulfonyl)phenyl}-5-{4-(methylsulfonyl)phenyl}-3(2H)-furanone], which melting point is on record?
Answer: 198 to 203 °C

Question: For CSc1ccc(C2=C(c3cccc(F)c3)C(=O)C(C)(C)O2)cc1 [Example 166, 2,2-Dimethyl-4-(3-fluorophenyl)-5-{4-(methylthio)phenyl}-3(2H)-furanone], which melting point is on record?
Answer: 106 °C

Question: Which melting point does the source give for CSc1ccc(C2=C(c3cc(F)cc(F)c3)C(=O)C(C)(C)O2)cc1 [Example 173, 4-(3,5-difluorophenyl)-2,2-dimethyl-5-{4-(methylthio)-phenyl}-3(2H)-furanone] here?
Answer: 122 to 123 °C

Question: With CCCC(=O)NS(=O)(=O)c1ccc(C2=C(c3cccc(F)c3)C(=O)C(C)(C)O2)cc1 [Example 183, 5-[4-{(n-Butyrylamino)sulfonyl}phenyl]-2,2-dimethyl-4-(3-fluorophenyl)-3(2H)-furanone] as the molecule, how does the melting point read?
Answer: 188 to 189 °C

Question: Which melting point does the source give for CNS(=O)(=O)c1ccc(C2=C(c3cccc(F)c3)C(=O)C(C)(C)O2)cc1 [Example 184, 2,2-Dimethyl-5-{4-(N-methylaminosulfonyl)phenyl}-4-(3-fluorophenyl)-3(2H)-furanone] here?
Answer: 176 to 177 °C

Question: With Cc1cccc(C2=C(c3ccc(S(C)(=O)=O)cc3)OC3(CCCCC3)C2=O)c1 [Example 260, 3-(3-Methylphenyl)-2-{4-(methylsulfonyl)phenyl}-1-oxa-spiro[4,5]dec-2-en-4-one] as the molecule, how does the melting point read?
Answer: 154 to 155 °C

Question: Which melting point does the source give for CC1(C)OC(c2ccc(S(C)(=O)=O)c(F)c2)=C(c2ccc([N+](=O)[O-])cc2)C1=O [Example 287, 2,2-dimethyl-4-(4-nitrophenyl)-5-{3-fluoro-4-(methylsulfonyl)-phenyl}-3(2H)-furanone] here?
Answer: 173 to 174 °C

Question: For C[S+]([O-])c1ccc(C2=C(c3ccccc3)C(=O)C(C)(C)O2)c(F)c1 (stereo not drawn) [Example 327, 2,2-Dimethyl-5-{2-fluoro-4-(methylsulfinyl)phenyl}-4-phenyl-3(2H)-furanone], which melting point is on record?
Answer: 149 to 150 °C

Question: For C[S+]([O-])c1ccc(C2=C(c3ccccc3)C(=O)C(C)(C)O2)cc1Cl (stereo not drawn) [Example 363, 5-{3-Chloro-4-(methylsulfinyl)phenyl}-2,2-dimethyl-4-phenyl-3(2H)-furanone], which melting point is on record?
Answer: 120 to 121 °C

Question: With Cc1cc(C2=C(c3cccc(F)c3)C(=O)C(C)(C)O2)ccc1S(N)(=O)=O [Example 380, 5-{4-(Aminosulfonyl)-3-methylphenyl}-2,2-dimethyl-4-(3-fluorophenyl)-3(2H)-furanone] as the molecule, how does the melting point read?
Answer: 81 to 82 °C

Question: Which melting point does the source give for C[S+]([O-])c1ccc(C2=C(c3ccccc3)C(=O)C(C)(C)O2)c(Cl)c1 (stereo not drawn) [Example 391, 5-{2-Chloro-4-(methylsulfinyl)phenyl}-2,2-dimethyl-4-phenyl-3(2H)-furanone] here?
Answer: 135 to 136 °C
